Measurements taken from patent US10584117B2, “1,3,4-oxadiazole amide derivative compound as histone deacetylase 6 inhibitor, and pharmaceutical composition containing same” (Chong Kun Dang Pharmaceutical Corp., priority 2015, dated 2020).

Molecular target: T1, human recombinant HDAC6 (Homo sapiens, UniProt Q9UBN7)
T1 construct: purchased Calbiochem 382180
T1 sequence (Q9UBN7 1-1215): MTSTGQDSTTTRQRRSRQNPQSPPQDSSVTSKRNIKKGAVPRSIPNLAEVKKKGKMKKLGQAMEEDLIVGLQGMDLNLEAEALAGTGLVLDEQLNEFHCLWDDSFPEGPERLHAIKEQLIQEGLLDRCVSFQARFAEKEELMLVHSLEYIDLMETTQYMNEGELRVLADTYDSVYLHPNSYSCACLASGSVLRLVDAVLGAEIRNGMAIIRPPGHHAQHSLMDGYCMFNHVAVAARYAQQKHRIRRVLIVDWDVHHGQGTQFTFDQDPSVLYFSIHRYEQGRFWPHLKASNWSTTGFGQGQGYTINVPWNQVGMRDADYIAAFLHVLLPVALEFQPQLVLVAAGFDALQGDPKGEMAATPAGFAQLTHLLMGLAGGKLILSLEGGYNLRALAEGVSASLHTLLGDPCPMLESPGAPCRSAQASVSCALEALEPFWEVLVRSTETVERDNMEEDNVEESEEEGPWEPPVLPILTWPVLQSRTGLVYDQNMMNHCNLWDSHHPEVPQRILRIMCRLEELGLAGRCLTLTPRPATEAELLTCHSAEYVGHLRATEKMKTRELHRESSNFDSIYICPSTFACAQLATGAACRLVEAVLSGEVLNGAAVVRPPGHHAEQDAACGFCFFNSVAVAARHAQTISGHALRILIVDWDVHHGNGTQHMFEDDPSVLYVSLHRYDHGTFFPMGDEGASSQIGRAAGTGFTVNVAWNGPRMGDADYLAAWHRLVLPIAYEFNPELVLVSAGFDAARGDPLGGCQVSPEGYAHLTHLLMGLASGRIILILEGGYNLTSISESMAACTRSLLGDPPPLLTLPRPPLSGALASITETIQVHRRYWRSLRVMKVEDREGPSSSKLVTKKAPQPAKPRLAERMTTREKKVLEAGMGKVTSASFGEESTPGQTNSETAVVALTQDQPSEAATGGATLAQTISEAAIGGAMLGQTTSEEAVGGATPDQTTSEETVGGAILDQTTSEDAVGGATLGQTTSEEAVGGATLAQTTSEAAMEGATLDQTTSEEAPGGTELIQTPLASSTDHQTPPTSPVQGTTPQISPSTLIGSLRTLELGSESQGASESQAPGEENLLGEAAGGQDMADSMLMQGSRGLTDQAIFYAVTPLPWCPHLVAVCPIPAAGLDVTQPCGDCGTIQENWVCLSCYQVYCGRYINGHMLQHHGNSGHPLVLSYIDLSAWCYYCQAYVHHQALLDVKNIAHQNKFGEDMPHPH
Assay: HDAC enzyme activity inhibition assay (HDAC6, fluorimetric kit)
Type: biochemical
Details: for HDAC6 selectivity (fold): HDAC6 versus HDAC1; for IC50: same protocol as the HDAC1 test
Method: In order to examine the HDAC6 selectivity of the compounds of formula I of the present invention by HDAC1 and HDAC6 enzymatic activity inhibition assays, an experiment was performed using a conventional substance as a control. HDAC enzyme activity was measured using a HDAC Fluorimetric Drug Discovery Kit (BML-AK511, 516) from Enzo Life Science. For the HDAC1 enzyme activity test, human recombinant HDAC1 (BML-SE456) was used as an enzyme source, and Fluor de Lys®-“SIRT1 (BNL-KI177) was used as a substrate. A 5-fold dilution of the compound was seeded into a 96-well plate, and then 0.3 μg of the enzyme and 10 μM of the substrate were added to each well of the plate and allowed to react at 30° C. for 60 minutes. Then, Fluor de Lys®-Developer II (BML-KI176) was added thereto and allowed to react for 30 minutes, after which the fluorescence value (Ex 360, Em 460) was measured using a multi-plate reader (Flexstation 3, Molecular Device). The HDAC6 enzyme was tested using human recombinant HDAC6 (382180) from Calbiochem, according to the same protocol as the HDAC1 enzyme activity test method. Based on the resulting values, each IC50 value was calculated using GraphPad Prism4.0 program.

SMILES | HDAC6 selectivity (fold) | IC50
CC(=O)N(Cc1ccc(-c2nnc(C(F)F)o2)cc1F)c1ccccc1 [Compound 11247, N-(4-(5-(difluoromethyl)-1,3,4-oxadiazol-2-yl)-2-fluorobenzyl)-N-phenylacetamide] | 1887 fold | 53 nM
CCC(=O)N1CC(C(=O)N(Cc2ccc(-c3nnc(C(F)F)o3)cc2F)c2cccc(F)c2)C1 [Compound 11331, N-(4-(5-(difluoromethyl)-1,3,4-oxadiazol-2-yl)-2-fluorobenzyl)-N-(3-fluorophenyl)-1-propionylazetidine-3-carboxamide] | 1786 fold | 56 nM
CC(C)C(=O)N1CCC(C(=O)N(Cc2ccc(-c3nnc(C(F)F)o3)cc2F)c2ccccc2)CC1 [Compound 11213, N-(4-(5-(difluoromethyl)-1,3,4-oxadiazol-2-yl)-2-fluorobenzyl)-1-isobutyryl-N-phenylpiperidine-4-carboxamide] | 781 fold | 128 nM
O=C(CN1CCN(C2COC2)CC1)N(Cc1ccc(-c2nnc(C(F)F)o2)cc1F)c1ccc(F)c(Cl)c1 [Compound 11614, N-(3-chloro-4-fluorophenyl)-N-(4-(5-(difluoromethyl)-1,3,4-oxadiazol-2-yl)-2-fluorobenzyl)-2-(4-(oxetan-3-yl)piperazin-1-yl)acetamide] | 1190 fold | 84 nM
CC(C)N1CC(C(=O)N(Cc2ccc(-c3nnc(C(F)F)o3)cc2F)c2cccc(F)c2)C1 [Compound 11329, N-(4-(5-(difluoromethyl)-1,3,4-oxadiazol-2-yl)-2-fluorobenzyl)-N-(3-fluorophenyl)-1-isopropylazetidine-3-arboxamide] | 1786 fold | 56 nM
CCC(=O)N1CCC(C(=O)N(Cc2ccc(-c3nnc(C(F)(F)F)o3)cc2F)c2ccccc2)CC1 [Compound 11204, N-(2-fluoro-4-(5-(trifluoromethyl)-1,3,4-oxadiazol-2-yl)benzyl)-N-phenyl-1-propionylpiperidine-4-carboxamide] | 917 fold | 109 nM
O=C(C1CCS(=O)(=O)CC1)N(Cc1ccc(-c2nnc(C(F)F)o2)cc1F)c1ccc(F)c(Cl)c1 [Compound 11603, N-(3-chloro-4-fluorophenyl)-N-(4-(5-(difluoromethyl)-1,3,4-oxadiazol-2-yl)-2-fluorobenzyl)tetrahydro-2H-thiopyran-4-carboxamide 1,1-dioxide] | 685 fold | 146 nM
CC(C)N1CCC(C(=O)N(Cc2ccc(-c3nnc(C(F)(F)F)o3)cc2)c2ccccc2)CC1 [Compound 11143, 1-isopropyl-N-phenyl-N-(4-(5-(trifluoromethyl)-1,3,4-oxadiazol-2-yl)benzyl)piperidine-4-carboxamide] | 452 fold | 221 nM
CC(C)(C)OC(=O)N1CCC(C(=O)N(Cc2ccc(-c3nnc(C(F)(F)F)o3)cc2)c2ccccc2)CC1 [Compound 11135, tert-butyl 4-(phenyl(4-(5-(trifluoromethyl)-1,3,4-oxadiazol-2-yl)benzyl)carbamoyl)piperidine-1-carboxylate] | 36 fold | 2750 nM
CCC(=O)N1CC(C(=O)N(Cc2ccc(-c3nnc(C(F)(F)F)o3)cc2F)c2ccccc2)C1 [Compound 11235, N-(2-fluoro-4-(5-(trifluoromethyl)-1,3,4-oxadiazol-2-yl)benzyl)-N-phenyl-1-propionylazetidine-3-carboxamide] | 1538 fold | 65 nM
O=C(C1CCN(C(=O)C(F)(F)F)CC1)N(Cc1ccc(-c2nnc(C(F)(F)F)o2)cc1F)c1ccccc1 [Compound 11206, N-(2-fluoro-4-(5-(trifluoromethyl)-1,3,4-oxadiazol-2-yl)benzyl)-N-phenyl-1-(2,2,2-trifluoroacetyl)piperidine-4-carboxamide] | 269 fold | 372 nM
CCCC(=O)N(Cc1ccc(-c2nnc(C(F)F)o2)cc1F)c1cccc(F)c1 [Compound 11357, N-(4-(5-(difluoromethyl)-1,3,4-oxadiazol-2-yl)-2-fluorobenzyl)-N-(3-fluorophenyl)butyramide] | 1149 fold | 87 nM
CCN1CC(C(=O)N(Cc2ccc(-c3nnc(C(F)(F)F)o3)cc2F)c2ccccc2)C1 [Compound 11233, 1-ethyl-N-(2-fluoro-4-(5-(trifluoromethyl)-1,3,4-oxadiazol-2-yl)benzyl)-N-phenylazetidine-3-carboxamide] | 2703 fold | 37 nM
O=C(c1cccnc1)N(Cc1ccc(-c2nnc(C(F)F)o2)cn1)c1cccc(F)c1 [Compound 11376, N-((5-(5-(difluoromethyl)-1,3,4-oxadiazol-2-yl)pyridin-2-yl)methyl)-N-(3-fluorophenyl)nicotinamide] | 4167 fold | 24 nM
O=C(c1ccccc1)N(Cc1ccc(-c2nnc(C(F)(F)F)o2)cc1)c1ccccc1 [Compound 11107, N-phenyl-N-(4-(5-(trifluoromethyl)-1,3,4-oxadiazol-2-yl)benzyl)benzamide] | 196 fold | 509 nM
O=C(CN1CCS(=O)(=O)CC1)N(Cc1ccc(-c2nnc(C(F)F)o2)cc1F)c1ccc(F)c(Cl)c1 [Compound 11610, N-(3-chloro-4-fluorophenyl)-N-(4-(5-(difluoromethyl)-1,3,4-oxadiazol-2-yl)-2-fluorobenzyl)-2-(1,1-dioxidothiomorpholino)acetamide] | 690 fold | 145 nM
O=C(c1ccncc1)N(Cc1ccc(-c2nnc(C(F)F)o2)cn1)c1ccccc1 [Compound 11341, N-((5-(5-(difluoromethyl)-1,3,4-oxadiazol-2-yl)pyridin-2-yl)methyl)-N-phenylisonicotinamide] | 2941 fold | 34 nM
Cl.O=C(C1CNC1)N(Cc1ccc(-c2nnc(C(F)(F)F)o2)cc1)c1ccccc1 [Compound 11136, N-phenyl-N-(4-(5-(trifluoromethyl)-1,3,4-oxadiazol-2-yl)benzyl)azetidine-3-carboxamide hydrochloride] | 493 fold | 203 nM
CCC(=O)N(Cc1ccc(-c2nnc(C(F)F)o2)cc1F)c1cccc(F)c1 [Compound 11356, N-(4-(5-(difluoromethyl)-1,3,4-oxadiazol-2-yl)-2-fluorobenzyl)-N-(3-fluorophenyl)propionamide] | 1961 fold | 51 nM
CC(=O)N1CCN(CC(=O)N(Cc2ccc(-c3nnc(C(F)F)o3)cc2F)c2ccc(F)c(Cl)c2)CC1 [Compound 11611, 2-(4-acetylpiperazin-1-yl)-N-(3-chloro-4-fluorophenyl)-N-(4-(5-(difluoromethyl)-1,3,4-oxadiazol-2-yl)-2-fluorobenzyl)acetamide] | 625 fold | 160 nM
CN1CC(C(=O)N(Cc2ccc(-c3nnc(C(F)F)o3)cc2F)c2cccc(F)c2)C1 [Compound 11325, N-(4-(5-(difluoromethyl)-1,3,4-oxadiazol-2-yl)-2-fluorobenzyl)-N-(3-fluorophenyl)-1-methylazetidine-3-carboxamide] | 1111 fold | 90 nM
CC(C)C(=O)N1CC(C(=O)N(Cc2ccc(-c3nnc(C(F)(F)F)o3)cc2F)c2ccccc2)C1 [Compound 11236, N-(2-fluoro-4-(5-(trifluoromethyl)-1,3,4-oxadiazol-2-yl)benzyl)-1-isobutyryl-N-phenylazetidine-3-carboxamide] | 1370 fold | 73 nM
